Reference: patent publication US10472352B2, “Rac inhibitors” (Geneyus LLC, priority 2017, dated 2019)

Experiments:
[1] = system: MCF-7 human breast cancer cell line; test: Cell Viability Assay (MCF7), PrestoBlue; format: cell-based; conditions: MCF7, 72 h, MCF-7 cells, three days after drug treatment
Protocol: In order to determine a compound's effect on cell viability, PrestoBlue assays were performed as previously described by Kuhn et al. (2013) with modifications. MCF-7 human breast cancer and IGR-1 human melanoma cell lines were seeded into 96-well plates 24 hours prior to addition of drug. Cells were treated with 0 to 200 μM (11 concentrations) of compound solubilized in DMSO, adjusting the final concentration of DMSO to 1% in the well. Three days after drug treatment, cell viability was measured by adding PrestoBlue (Life Technologies Ltd.; cat. No. A13262) reagent directly to wells containing media/drug to reach a final concentration of 10%. PrestoBlue is a modified molecule of the common Alamar Blue probe used to determine viability based on the ability of a cell to metabolize a nonfluorescent compound (resazurin) to a florescent molecule (resorufin). Following a 1 hour incubation period, total well fluorescence was measured using the microplate reader M1000 pro (Tecan) with excitation 560-5 nm and emission 590-5 nm. […] The percentage of living cells was then computed by comparison with control wells. Kuhn, Jonas et al., Assay and Drug Development Technologies, March 2013, Label-Free Cytotoxicity Screening Assay by Digital Holographic Microscopy.

Rac1 protein = molecular target: T1, Rac1 protein (Homo sapiens, UniProt P63000); test: Fluorescence Polarization Assay (Rac1 FP); format: binding; conditions: 125 nM his-tagged Rac1, 12.5 nM Bodipy-TR GTPγS, 30 minutes at 37° C.
T1 construct: purchased Cytoskeleton Inc. RC01
Protocol: Direct binding of Rac1 compound inhibitors to Rac1 protein was performed using fluorescence polarization (FP). Briefly, Rac1 inhibitors were initially dissolved in DMSO and then serial drug dilutions in exchange buffer (20 mM Tris pH 7.5, 50 mM NaCl, 1 mM MgCl, 1 mM EDTA) were prepared in a flat black 96-well half-area plate (Greiner). Recombinant his-tagged Rac1 protein (Cytoskeleton Inc. Cat. # RC01) was added to the inhibitors at a final concentration of 125 nM along with 12.5 nM Bodipy-TR GTPγS (Life Technologies Inc. Cat. # G35780) in exchange buffer and incubated for 30 minutes at 37° C. in exchange buffer. After 30 minutes of incubation. FP was measured on the M1000 Pro (Tecan) fluorescent plate reader with 590 nm±5 nm excitation and 625 nm±5 nm emission spectra settings.

[2] = molecular target: His-Rac1 / GST-PBD (PAK Binding Domain) (Homo sapiens, UniProt P63000); test: Rac Activation AlphaScreen Assay (Rac1 AS); format: biochemical; conditions: 500 nM GTPγS, 37° C., 1 hour; 'positive' = signal generated was higher than the positive control
Protocol: AlphaScreen® assays were performed in 96-well microplates in a final reaction volume of 60 μl. Recombinant His-Rac1, recombinant GST-PBD (PAK Binding Domain), donor and acceptor beads (PerkinElmer), and inhibitors were incubated in exchange buffer (20 mM Tris pH 7.5, 50 mM NaCl, 1 mM MgCl2, 1 mM EDTA, 500 nM GTPγS (guanosine 5′-[γ-thio]triphosphate)) at 37° C. Readings were performed on a Tecan M1000 pro microplate reader after 1 hour.

HUVECs [3] = test: HUVEC Tube Formation Assay; format: cell-based; conditions: doses above 6.25 μM, 8 h, Matrigel
Protocol: The endothelial cell tube formation assay is an in vitro assay that is widely accepted to accurately reflect number of terminal stages of the angiogenic process such as attachment, migration and differentiation into tubular structures. In this model, endothelial cells are cultured on a monolayer of reconstituted basement membrane components (Matrigel) and form, in a few hours, capillary-like structure. Therefore, this system is a useful and powerful tool for rapidly screening anti-angiogenic agents by monitoring inhibition of endothelial cells morphogenesis on extracellular matrix.
HUVECs (5×10^3) were seeded on top of Matrigel in a 24-well plate. The cells were treated either with DMSO or different concentrations of the Rac1 inhibitor 0032253 (5, 6.25, 10, 12.5 μM) for 8 h in triplicate. The plates were scanned by LICOR Odyssey Imaging system.

HUVECs [4] = test: Cell Migration Assay (Boyden chamber); format: cell-based; conditions: 5 uM
Protocol: An essential characteristic of malignant cells is their ability to migrate, invade host tissues and to produce metastases. In order to evaluate the capacity of one compound to affect the ability of tumoral cells to migrate, migration assays were performed using HUVEC cells.
HUVECs (2.5×10^4) were seeded onto uncoated filters in a 24-well transwell Boyden chamber ([…]; Costar) and allowed to migrate in the presence and absence of different doses of the Rac1 inhibitor 0032253 (5, 6.25, 10, 12.5, 20, 25 μM). The cells that migrated to the underside of the filter were stained with crystal violet and counted under the bright field microscopy.

HUVECs [5] = test: Cellular Proliferation Assay; format: cell-based; conditions: 25 uM, cells counted day 0 through day 4
Protocol: 25,000 cells were seeded in 6-well plates. The next day, vehicle (DMSO) or 25 μM 0032253 was added to cells (Day 0). Cells were counted on days 0 through day 4 using a hemocytometer.

WM1158 cells = test: Western Blot Analysis of phosphorylated AKT, MEK1/2, ERK1/2; format: cell-based; conditions: increasing concentrations, two hours, vs DMSO control
Excerpt: Western blot analysis is used to identify specific proteins from a complex mixture of proteins extracted from cells. Equal amount of protein is run on the SDS-PAGE gel and after separating the protein mixture, it is transferred to a membrane. The transferred protein is then probed with a combination of antibodies: one antibody specific to the protein of interest (primary antibody) and another antibody specific to the host species of the primary antibody (secondary antibody). The secondary antibody is complexed with an enzyme, which when combined with an appropriate substrate, will produce a detectable signal.
WM1158 cells were treated with increasing concentrations of 0032253 for two hours. SDS-PAGE was conducted on cell lysates and Western Blot analysis was conducted on samples for total and phosphorylated AKT, MEK1/2, and ERK1/2.

IC50 [1]: 4.38 µM
IC50 (Rac1 protein): 3.42 µM
Rac1 AS IC50(uM) [2]: positive
Structure (SMILES): FC(F)(F)c1ccc2c(SCCCCCCn3cc(CN4CCOCC4)nn3)ccnc2c1 (racemic) [Compound 0032253, 4-({6-[4-(morpholin-4-ylmethyl)-1H-1,2,3-triazol-1-yl]hexyl}sulfanyl)-7-(trifluoromethyl)quinoline]
HUVEC tube formation (HUVECs [3]): significantly reduce the ability of HUVECs to form tube like structures
HUVEC migration through a Boyden Chamber (HUVECs [4]): impairs the ability of HUVECs to migrate through a Boyden Chamber
HUVEC proliferation (HUVECs [5]): completely inhibits the ability of HUVECs to proliferate
expression of phosphorylated AKT (WM1158 cells): reduced as compared to DMSO control
expression of phosphorylated ERK1/2 (WM1158 cells): reduced as compared to DMSO control
expression of phosphorylated MEK1/2 (WM1158 cells): reduced as compared to DMSO control
